From PubChem BioAssay AID248 (DTP/NCI, 2004)
Where “and” joins values, the source holds several entries; their conditions need not be identical. Equal entries are not always repeated. Inconclusive results and toxic doses are left out.

Tested on: L1210 leukemia ip in BDF1 mice, survival T/C
Test: NCI In Vivo Anticancer Drug Screen. Data for tumor model L1210 Leukemia (intraperitoneal) in B6D2F1 (BDF1) mice
Details: endpoint: mean survival time, higher = longer survival
How it was run: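 Each compound was tested against a transplantable tumor grown in mice. The endpoint was survival, with treated animals benchmarked against vehicle controls as a simple ratio.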

[1] = dose: 100.0 mg/kg/injection, schedule: Q04DX003 (ip), vehicle: Klucel (hydroxypropylcellulose) (HPC)
[2] = dose: 200.0 mg/kg/injection, schedule: Q04DX003 (ip), vehicle: Klucel (hydroxypropylcellulose) (HPC)
[3] = dose: 400.0 mg/kg/injection, schedule: Q04DX003 (ip), vehicle: Klucel (hydroxypropylcellulose) (HPC)
[4] = dose: 100.0 mg/kg/injection, schedule: Q01DX001 (ip), vehicle: carboxymethylcellulose (CMC)
[5] = dose: 200.0 mg/kg/injection, schedule: Q01DX001 (ip), vehicle: carboxymethylcellulose (CMC)
[6] = dose: 400.0 mg/kg/injection, schedule: Q01DX001 (ip), vehicle: carboxymethylcellulose (CMC)
[7] = dose: 100.0 mg/kg/injection, schedule: Q04DX002 (ip), vehicle: Klucel (hydroxypropylcellulose) (HPC)
[8] = dose: 200.0 mg/kg/injection, schedule: Q04DX002 (ip), vehicle: Klucel (hydroxypropylcellulose) (HPC)
[9] = dose: 400.0 mg/kg/injection, schedule: Q04DX002 (ip), vehicle: Klucel (hydroxypropylcellulose) (HPC)
[10] = dose: 100.0 mg/kg/injection, schedule: Q04DX003 (ip), vehicle: saline with Tween-80
[11] = dose: 200.0 mg/kg/injection, schedule: Q04DX003 (ip), vehicle: saline with Tween-80
[12] = dose: 400.0 mg/kg/injection, schedule: Q04DX003 (ip), vehicle: saline with Tween-80
[13] = dose: 50.0 mg/kg/injection, schedule: Q04DX003 (ip), vehicle: Klucel (hydroxypropylcellulose) (HPC)

In the case of `Cc1c(N=CN(C)C)c(=O)n(-c2ccccc2)n1C`, the T/C (dose: 100.0 mg/kg/injection, schedule: Q01DX009 (ip), vehicle: Klucel (hydroxypropylcellulose) (HPC)) is reported as 94 % of control, the T/C [1] is reported as 110 % of control and the T/C (dose: 200.0 mg/kg/injection, schedule: Q01DX009 (ip), vehicle: Klucel (hydroxypropylcellulose) (HPC)) is reported as 93 % of control. The T/C [2] was 105 % of control, the T/C (dose: 400.0 mg/kg/injection, schedule: Q01DX009 (ip), vehicle: Klucel (hydroxypropylcellulose) (HPC)) was 100 % of control and the T/C [3] was 107 % of control.
In the case of `O=NN(CCF)C(=O)NC1CCC(C(=O)O)CC1` (stereo not given), the T/C (dose: 4.0 mg/kg/injection, schedule: Q01DX001 (ip), vehicle: saline with Tween-80) is reported as 105 % of control and 106 % of control, the T/C (dose: 6.0 mg/kg/injection, schedule: Q01DX001 (ip), vehicle: saline with Tween-80) is reported as 108 % of control and the T/C (dose: 9.0 mg/kg/injection, schedule: Q01DX001 (ip), vehicle: saline with Tween-80) is reported as 116 % of control and 119 % of control. For the same compound, the T/C (dose: 13.0 mg/kg/injection, schedule: Q01DX001 (ip), vehicle: saline with Tween-80) was 117 % of control, the T/C (dose: 20.0 mg/kg/injection, schedule: Q01DX001 (ip), vehicle: saline with Tween-80) was 152 % of control and the T/C (dose: 30.0 mg/kg/injection, schedule: Q01DX001 (ip), vehicle: saline with Tween-80) was 263 % of control and 206 % of control. The T/C (dose: 45.0 mg/kg/injection, schedule: Q01DX001 (ip), vehicle: saline with Tween-80) was 306 % of control and 432 % of control and the T/C (dose: 66.0 mg/kg/injection, schedule: Q01DX001 (ip), vehicle: saline with Tween-80) was 500 % of control.
For `CN(C)c1ccc(-c2ccc(N(C)C)cc2)cc1`, the T/C (dose: 50.0 mg/kg/injection, schedule: Q01DX001 (ip), vehicle: carboxymethylcellulose (CMC)) was 100 % of control, the T/C [4] was 100 % of control and the T/C [5] was 96 % of control. The T/C [6] was 106 % of control.
For `CCCCCCCCCCCCC(O)(CCC)C(=O)O` (stereo not given), the T/C [7] was 102 % of control, the T/C [8] was 98 % of control and the T/C [9] was 98 % of control.
`Cc1ccc(C(=O)N/N=C/c2ccc(N(C)C)cc2Cl)cc1` was tested, and the T/C (dose: 100.0 mg/kg/injection, schedule: Q04DX002 (ip), vehicle: saline) was 105 % of control, the T/C (dose: 200.0 mg/kg/injection, schedule: Q04DX002 (ip), vehicle: saline) was 108 % of control and the T/C (dose: 400.0 mg/kg/injection, schedule: Q04DX002 (ip), vehicle: saline) was 105 % of control.
In the case of `Cc1c([N+](=O)[O-])cc(C(C)(C)C)c(OC(=O)C(C)(C)C)c1[N+](=O)[O-]`, the T/C (dose: 25.0 mg/kg/injection, schedule: Q04DX002 (ip), vehicle: Klucel (hydroxypropylcellulose) (HPC)) is reported as 95 % of control, the T/C (dose: 50.0 mg/kg/injection, schedule: Q04DX002 (ip), vehicle: Klucel (hydroxypropylcellulose) (HPC)) is reported as 100 % of control and the T/C [7] is reported as 92 % of control.
With `c1ccc2c(c1)Cc1cc(NC3=NCCO3)ccc1-2` the T/C (dose: 50.0 mg/kg/injection, schedule: Q04DX002 (ip), vehicle: saline with Tween-80) was 93 % of control, the T/C (dose: 100.0 mg/kg/injection, schedule: Q04DX002 (ip), vehicle: saline with Tween-80) was 100 % of control and the T/C [10] was 101 % of control. For the same compound, the T/C (dose: 200.0 mg/kg/injection, schedule: Q04DX002 (ip), vehicle: saline with Tween-80) was 104 % of control, the T/C [11] was 89 % of control and the T/C (dose: 400.0 mg/kg/injection, schedule: Q04DX002 (ip), vehicle: saline with Tween-80) was 93 % of control. For the same compound, the T/C [12] was 87 % of control.
With `N#CC1(Cc2ccccc2)c2ccccc2-c2ccccc21` the T/C [1] was 98 % of control, the T/C [2] was 89 % of control and the T/C [3] was 91 % of control.
With `Cc1ccc(S(=O)(=O)Oc2ccccc2C)cc1` the T/C [1] was 97 % of control, the T/C [2] was 103 % of control and the T/C [3] was 103 % of control.
With `COc1ccc(OC)c(C(=O)CC(O)(C(F)(F)F)C(F)(F)F)c1` the T/C [10] was 94 % of control, the T/C [11] was 90 % of control and the T/C [12] was 99 % of control.
With `COCC(N)=O` the T/C (dose: 100.0 mg/kg/injection, schedule: Q01DX009 (ip), vehicle: saline) was 95 % of control, the T/C (dose: 100.0 mg/kg/injection, schedule: Q04DX003 (ip), vehicle: saline) was 107 % of control and the T/C (dose: 200.0 mg/kg/injection, schedule: Q01DX009 (ip), vehicle: saline) was 97 % of control. The T/C (dose: 200.0 mg/kg/injection, schedule: Q04DX003 (ip), vehicle: saline) was 107 % of control, the T/C (dose: 400.0 mg/kg/injection, schedule: Q01DX009 (ip), vehicle: saline) was 97 % of control and the T/C (dose: 400.0 mg/kg/injection, schedule: Q04DX003 (ip), vehicle: saline) was 101 % of control.
`Cc1ccc2c(ccc3c[n+]4ccccc4c(C)c32)c1` was tested, and the T/C (dose: 12.5 mg/kg/injection, schedule: Q01DX001 (ip), vehicle: carboxymethylcellulose (CMC)) was 107 % of control and the T/C (dose: 25.0 mg/kg/injection, schedule: Q01DX001 (ip), vehicle: carboxymethylcellulose (CMC)) was 96 % of control.
With `CCOC(=O)C/C(C)=N\NC(N)=O` the T/C [7] was 104 % of control, the T/C [8] was 101 % of control and the T/C [9] was 97 % of control.
`CN1C(=O)N(C)C(=O)C2(C1=O)C1(C(=O)N(C)C(=O)N(C)C1=O)C21C(=O)N(C)C(=O)N(C)C1=O` was tested, and the T/C [7] was 102 % of control, the T/C [8] was 100 % of control and the T/C [9] was 89 % of control.
In the case of `CCCCC(=O)C(CCC)C(=O)Nc1ccccc1` (stereo not given), the T/C [13] is reported as 98 % of control, the T/C [4] is reported as 100 % of control and the T/C [1] is reported as 94 % of control and 98 % of control. For the same compound, the T/C [5] was 91 % of control, the T/C [2] was 96 % of control and 98 % of control and the T/C [6] was 91 % of control. For the same compound, the T/C [3] was 98 % of control.
In the case of `COc1ccccc1-n1c(=O)c(N=Nc2ccc(Cl)cc2)c(O)n(-c2ccccc2C)c1=S`, the T/C (dose: 75.0 mg/kg/injection, schedule: Q04DX003 (ip), vehicle: Klucel (hydroxypropylcellulose) (HPC)) is reported as 94 % of control, the T/C (dose: 150.0 mg/kg/injection, schedule: Q04DX003 (ip), vehicle: Klucel (hydroxypropylcellulose) (HPC)) is reported as 107 % of control and the T/C (dose: 300.0 mg/kg/injection, schedule: Q04DX003 (ip), vehicle: Klucel (hydroxypropylcellulose) (HPC)) is reported as 104 % of control.
For `COc1ccc(/C=C/[N+](=O)[O-])cc1`, the T/C (dose: 6.25 mg/kg/injection, schedule: Q04DX002 (ip), vehicle: saline with Tween-80) was 97 % of control, the T/C (dose: 12.5 mg/kg/injection, schedule: Q04DX002 (ip), vehicle: saline with Tween-80) was 93 % of control and the T/C (dose: 25.0 mg/kg/injection, schedule: Q04DX002 (ip), vehicle: other) was 96 % of control. The T/C (dose: 25.0 mg/kg/injection, schedule: Q04DX002 (ip), vehicle: saline with Tween-80) was 89 % of control, the T/C (dose: 25.0 mg/kg/injection, schedule: Q04DX003 (ip), vehicle: Klucel (hydroxypropylcellulose) (HPC)) was 100 % of control and the T/C [13] was 103 % of control. For the same compound, the T/C [1] was 95 % of control.
`CCCCCCCCCCCC(=O)Nc1ccc(O)cc1` was tested, and the T/C (dose: 25.0 mg/kg/injection, schedule: Q01DX009 (ip), vehicle: gum acacia) was 93 % of control, the T/C (dose: 50.0 mg/kg/injection, schedule: Q01DX009 (ip), vehicle: gum acacia) was 93 % of control and the T/C (dose: 100.0 mg/kg/injection, schedule: Q01DX009 (ip), vehicle: gum acacia) was 96 % of control. For the same compound, the T/C (dose: 100.0 mg/kg/injection, schedule: Q04DX003 (ip), vehicle: gum acacia) was 88 % of control, the T/C (dose: 200.0 mg/kg/injection, schedule: Q01DX009 (ip), vehicle: gum acacia) was 92 % of control and the T/C (dose: 200.0 mg/kg/injection, schedule: Q04DX003 (ip), vehicle: gum acacia) was 86 % of control. The T/C (dose: 400.0 mg/kg/injection, schedule: Q01DX009 (ip), vehicle: gum acacia) was 92 % of control and the T/C (dose: 400.0 mg/kg/injection, schedule: Q04DX003 (ip), vehicle: gum acacia) was 95 % of control.
In the case of `NC1=C(c2ccccc2)C(=O)C(N)=C(c2ccccc2)C1=O`, the T/C [4] is reported as 96 % of control, the T/C [5] is reported as 88 % of control and the T/C [6] is reported as 88 % of control.
